Experimental data as given in the supplement of paper PMC10307832.

Columns and labels:
Test in all cases: relative viability (nuclei count vs DMSO), 5 days (fraction); higher = more cells survive
[1] = compound: CC1=C(C(=O)N2C=CSC2=N1)CCN3CCC(=C(C4=CC=CC=C4)C5=CC=C(C=C5)F)CC3 + N=C(N)NC(=N)NCCc1ccccc1 [Phenformin] (partner 250 µM)
In short: (§1)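 Lung cancer cell lines were seeded in 1536-well plates and dosed by pin tool the next day, with either a single drug or a fixed anchor-drug dose combined with five library-drug doses (not always all listed) spaced in √10 steps. Five days later, one step fixed the cells and stained their nuclei (final 0.05% Triton X-100, 1% formaldehyde, 1 ug/ml Hoechst), and nuclei were counted on 4× images. Relative viability is the nuclei count in treated wells divided by the count in vehicle wells, and each value is the median of duplicate plates.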

[2] = compound: CC1=C(C(=O)N2C=CSC2=N1)CCN3CCC(=C(C4=CC=CC=C4)C5=CC=C(C=C5)F)CC3 + Cc1nc(Nc2ncc(C(=O)Nc3c(C)cccc3Cl)s2)cc(N2CCN(CCO)CC2)n1 [Dasatinib] (partner 0.075 µM)
In short: as §1

[3] = compound: CC1=C(C(=O)N2C=CSC2=N1)CCN3CCC(=C(C4=CC=CC=C4)C5=CC=C(C=C5)F)CC3 + Cc1cc(Nc2cc(N3CCN(C)CC3)nc(Sc3ccc(NC(=O)C4CC4)cc3)n2)n[nH]1 [Tozasertib] (partner 0.1 µM)
In short: as §1

[4] = compound: CC1=C(C(=O)N2C=CSC2=N1)CCN3CCC(=C(C4=CC=CC=C4)C5=CC=C(C=C5)F)CC3 + COc1cc2c(Oc3ccc(NC(=O)C4(C(=O)Nc5ccc(F)cc5)CC4)cc3F)ccnc2cc1OCCCN1CCOCC1 [Foretinib] (partner 0.25 µM)
In short: as §1

[5] = compound: CC1=C(C(=O)N2C=CSC2=N1)CCN3CCC(=C(C4=CC=CC=C4)C5=CC=C(C=C5)F)CC3 + COc1cccc2cc(-c3nc([C@H]4CC[C@H](C(=O)O)CC4)n4ncnc(N)c34)[nH]c12 [OSI-027] (partner 0.5 µM)
In short: as §1

[6] = compound: CC1=C(C(=O)N2C=CSC2=N1)CCN3CCC(=C(C4=CC=CC=C4)C5=CC=C(C=C5)F)CC3 + CCNC(=O)c1noc(-c2cc(C(C)C)c(O)cc2O)c1-c1ccc(CN2CCOCC2)cc1 [Luminespib] (partner 0.01 µM)
In short: as §1

[7] = compound: CC1=C(C(=O)N2C=CSC2=N1)CCN3CCC(=C(C4=CC=CC=C4)C5=CC=C(C=C5)F)CC3
In short: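 Cells of lung cancer lines were placed in 1536-well plates and kept overnight at 37 °C. Pinning then delivered five library-drug doses (not always all listed), spaced by √10, onto plates anchored with vehicle, and the cells were left 5 days without changing medium. One step fixed, permeabilised and stained them with Hoechst, and MetaXpress counted nuclei in 4× images. Viability, as a median over plates, is treated-well nuclei divided by vehicle-well nuclei, with acceptance only at control CV below 25% and at least one doubling.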

[8] = compound: CC1=C(C(=O)N2C=CSC2=N1)CCN3CCC(=C(C4=CC=CC=C4)C5=CC=C(C=C5)F)CC3 + Nc1nc2[nH]cc(CCc3ccc(C(=O)N[C@@H](CCC(=O)O)C(=O)O)cc3)c2c(=O)[nH]1 [Pemetrexed] (partner 0.2 µM)
In short: as §1

[9] = compound: CC1=C(C(=O)N2C=CSC2=N1)CCN3CCC(=C(C4=CC=CC=C4)C5=CC=C(C=C5)F)CC3 + O=C(CCCCCCC(=O)Nc1ccccc1)NO [Vorinostat] (partner 1 µM)
In short: as §1

[10] = compound: CC1=C(C(=O)N2C=CSC2=N1)CCN3CCC(=C(C4=CC=CC=C4)C5=CC=C(C=C5)F)CC3 + O=C(c1cc(Cc2n[nH]c(=O)c3ccccc23)ccc1F)N1CCN(C(=O)C2CC2)CC1 [Olaparib] (partner 8 µM)
In short: as §1

[11] = compound: CC1=C(C(=O)N2C=CSC2=N1)CCN3CCC(=C(C4=CC=CC=C4)C5=CC=C(C=C5)F)CC3 + CC(=O)c1c(C)c2cnc(Nc3ccc(N4CCNCC4)cn3)nc2n(C2CCCC2)c1=O [Palbociclib] (partner 0.5 µM)
In short: as §1

[12] = compound: CC1=C(C(=O)N2C=CSC2=N1)CCN3CCC(=C(C4=CC=CC=C4)C5=CC=C(C=C5)F)CC3 + NC(=O)Nc1cc(-c2cccc(F)c2)sc1C(=O)N[C@H]1CCCNC1 [AZD7762] (partner 0.2 µM)
In short: as §1

[13] = compound: CC1=C(C(=O)N2C=CSC2=N1)CCN3CCC(=C(C4=CC=CC=C4)C5=CC=C(C=C5)F)CC3 + CC(=O)Nc1cccc(-n2c(=O)n(C3CC3)c(=O)c3c(Nc4ccc(I)cc4F)n(C)c(=O)c(C)c32)c1 [Trametinib] (partner 0.02 µM)
In short: as §1

[14] = compound: CC1=C(C(=O)N2C=CSC2=N1)CCN3CCC(=C(C4=CC=CC=C4)C5=CC=C(C=C5)F)CC3 + Nc1ncn([C@H]2C[C@H](O)[C@@H](CO)O2)c(=O)n1 [Decitabine] (partner 2 µM)
In short: as §1

In the case of NCI-H1623, the relative viability ([1]; first compound 0.08 µM) was 0.706, the relative viability ([1]; first compound 0.253 µM) was 0.618 and the relative viability ([1]; first compound 0.8 µM) was 0.607. For the same cell line, the relative viability ([1]; first compound 2.53 µM) was 0.564, the relative viability ([1]; first compound 8 µM) was 0.594 and the relative viability ([2]; first compound 0.08 µM) was 0.473. For the same cell line, the relative viability ([2]; first compound 0.253 µM) was 0.57, the relative viability ([2]; first compound 0.8 µM) was 0.5 and the relative viability ([2]; first compound 2.53 µM) was 0.536. The relative viability ([2]; first compound 8 µM) was 0.549, the relative viability ([3]; first compound 0.08 µM) was 0.466 and the relative viability ([3]; first compound 0.253 µM) was 0.434. For the same cell line, the relative viability ([3]; first compound 0.8 µM) was 0.446, the relative viability ([3]; first compound 2.53 µM) was 0.475 and the relative viability ([3]; first compound 8 µM) was 0.419. The relative viability ([4]; first compound 0.08 µM) was 0.632, the relative viability ([4]; first compound 0.253 µM) was 0.968 and the relative viability ([4]; first compound 0.8 µM) was 0.886. It also gave a relative viability ([4]; first compound 2.53 µM) of 0.819, a relative viability ([4]; first compound 8 µM) of 0.826 and a relative viability ([5]; first compound 0.08 µM) of 0.416. The relative viability ([5]; first compound 0.253 µM) was 0.411, the relative viability ([5]; first compound 0.8 µM) was 0.431 and the relative viability ([5]; first compound 2.53 µM) was 0.436. The relative viability ([5]; first compound 8 µM) was 0.433, the relative viability ([6]; first compound 0.08 µM) was 0.563 and the relative viability ([6]; first compound 0.253 µM) was 0.631. It also gave a relative viability ([6]; first compound 0.8 µM) of 0.521, a relative viability ([6]; first compound 2.53 µM) of 0.472 and a relative viability ([6]; first compound 8 µM) of 0.35. For the same cell line, the relative viability ([7]; 0.08 µM) was 0.887, the relative viability ([7]; 0.253 µM) was 1.03 and the relative viability ([7]; 0.8 µM) was 1.02. The relative viability ([7]; 2.53 µM) was 0.96 and the relative viability ([7]; 8 µM) was 0.87.
SW 900 was tested, and the relative viability ([1]; first compound 0.08 µM) was 0.474, the relative viability ([1]; first compound 0.253 µM) was 0.68 and the relative viability ([1]; first compound 0.8 µM) was 0.521. It also gave a relative viability ([1]; first compound 2.53 µM) of 0.568, a relative viability ([1]; first compound 8 µM) of 0.516 and a relative viability ([8]; first compound 0.08 µM) of 0.436. It also gave a relative viability ([8]; first compound 0.253 µM) of 0.532, a relative viability ([8]; first compound 0.8 µM) of 0.484 and a relative viability ([8]; first compound 2.53 µM) of 0.5. For the same cell line, the relative viability ([8]; first compound 8 µM) was 0.281, the relative viability ([2]; first compound 0.08 µM) was 0.399 and the relative viability ([2]; first compound 0.253 µM) was 0.634. The relative viability ([2]; first compound 0.8 µM) was 0.634, the relative viability ([2]; first compound 2.53 µM) was 0.584 and the relative viability ([2]; first compound 8 µM) was 0.41. The relative viability ([3]; first compound 0.08 µM) was 0.539, the relative viability ([3]; first compound 0.253 µM) was 0.636 and the relative viability ([3]; first compound 0.8 µM) was 0.606. The relative viability ([3]; first compound 2.53 µM) was 0.602, the relative viability ([3]; first compound 8 µM) was 0.351 and the relative viability ([9]; first compound 0.08 µM) was 0.438. It also gave a relative viability ([9]; first compound 0.253 µM) of 0.751, a relative viability ([9]; first compound 0.8 µM) of 0.478 and a relative viability ([9]; first compound 2.53 µM) of 0.603. It also gave a relative viability ([9]; first compound 8 µM) of 0.241, a relative viability ([10]; first compound 0.08 µM) of 0.896 and a relative viability ([10]; first compound 0.253 µM) of 0.878. The relative viability ([10]; first compound 0.8 µM) was 0.841, the relative viability ([10]; first compound 2.53 µM) was 0.848 and the relative viability ([10]; first compound 8 µM) was 0.706. For the same cell line, the relative viability ([4]; first compound 0.08 µM) was 0.833, the relative viability ([4]; first compound 0.253 µM) was 0.935 and the relative viability ([4]; first compound 0.8 µM) was 0.951. For the same cell line, the relative viability ([4]; first compound 2.53 µM) was 0.988, the relative viability ([4]; first compound 8 µM) was 0.566 and the relative viability ([11]; first compound 0.08 µM) was 0.524. The relative viability ([11]; first compound 0.253 µM) was 0.514, the relative viability ([11]; first compound 0.8 µM) was 0.543 and the relative viability ([11]; first compound 2.53 µM) was 0.58. For the same cell line, the relative viability ([11]; first compound 8 µM) was 0.526, the relative viability ([5]; first compound 0.08 µM) was 0.452 and the relative viability ([5]; first compound 0.253 µM) was 0.543. It also gave a relative viability ([5]; first compound 0.8 µM) of 0.582, a relative viability ([5]; first compound 2.53 µM) of 0.719 and a relative viability ([5]; first compound 8 µM) of 0.276. It also gave a relative viability ([6]; first compound 0.08 µM) of 0.181, a relative viability ([6]; first compound 0.253 µM) of 0.182 and a relative viability ([6]; first compound 0.8 µM) of 0.188. The relative viability ([6]; first compound 2.53 µM) was 0.188, the relative viability ([6]; first compound 8 µM) was 0.174 and the relative viability ([12]; first compound 0.08 µM) was 0.517. The relative viability ([12]; first compound 0.253 µM) was 0.666, the relative viability ([12]; first compound 0.8 µM) was 0.656 and the relative viability ([12]; first compound 2.53 µM) was 0.737. The relative viability ([12]; first compound 8 µM) was 0.367, the relative viability ([13]; first compound 0.08 µM) was 0.821 and the relative viability ([13]; first compound 0.253 µM) was 1.18. For the same cell line, the relative viability ([13]; first compound 0.8 µM) was 0.855, the relative viability ([13]; first compound 2.53 µM) was 0.614 and the relative viability ([13]; first compound 8 µM) was 0.497. For the same cell line, the relative viability ([14]; first compound 0.08 µM) was 0.477, the relative viability ([14]; first compound 0.253 µM) was 0.437 and the relative viability ([14]; first compound 0.8 µM) was 0.407. The relative viability ([14]; first compound 2.53 µM) was 0.45, the relative viability ([14]; first compound 8 µM) was 0.496 and the relative viability ([7]; 0.08 µM) was 0.89. For the same cell line, the relative viability ([7]; 0.253 µM) was 1.02, the relative viability ([7]; 0.8 µM) was 0.883 and the relative viability ([7]; 2.53 µM) was 1.04. For the same cell line, the relative viability ([7]; 8 µM) was 0.595.
